Source: US9198848B2, “Process for obtaining extracts containing methylxanthine derivatives from cakes of plants of the genus Theobroma, as well as composition and use of said extract” (Natura Cosmeticos S.A., priority 2008, dated 2015)

How the values were obtained:
human keratinocytes = assay: Production of β-endorphin in a culture of human keratinocytes (ELISA); format: cell-based; details: 0.038-0.600 μg/mL, 48 hr incubation, FIG. 3
Experimental: To carry out the experiments a cell line (pure/isolated culture) of human keranoticytes, adult age (mature), 7th passage was used.
The cells were cultured on appropriate culture plates (24 well) in specific medium culture, containing supplements required for cell maintenance and proliferation. For that purpose, 1×10^5 cells/well were seeded, confluence being reached after 72 hour incubation, in a wet stove, 5% CO2, 37° C.
Subsequent to confluence (approximately 80% of the total area), the samples to be assessed were added, at the appropriate concentrations and previously established, according to table 2, always keeping a group as CONTROL (with no treatment), for comparative purposes in assessing effectiveness. The samples were previously diluted in proper culture medium.
(§1) After 48 hour incubation (wet stove, 5% CO2, 37° C.) with the samples, the supernatant of cell cultures were collected for assessing the beta-endorphin release. The possible citotoxicity of the compound was also assessed and taken into account. Assessment was qualitative only, by analysis of morphology and cell characteristics.
Quantification of the production of beta-endorphin by the cells in culture was carried out by the immunoenzymatic method ELISA (Enzyme-Linked immunosorbent Assay), using a kit appropriate for determining de beta-endorphin in biological samples. The samples were assessed in quadruplicate.

bovine fosfodiesterase = details: in vitro bovine fosfodiesterase; theobromine versus caffeine; cited from earlier work
adipocytes = details: ex vivo adipocytes; caffeine versus theobromine; lypolisis rate by intracelullar glycerol; cited from earlier work
[1] = tested on: UVA light-induced wrinkles; details: topical; 10 mM; UVA 13.0 J/cm^2; 15-week study; cited from earlier work
human fibroblasts = assay: Production of β-endorphin in a culture of human fibroblasts (ELISA); format: cell-based; details: 0.038-0.600 μg/mL, 48 hr incubation, FIG. 2
Experimental: To carry out the experiments a cell line (pure/isolated culture) of human fibroblasts, adult age (mature), 6a passage was used.
The cells were cultured on appropriate culture plates (24 well) in specific medium culture, containing supplements required for cell maintenance and proliferation. For that purpose, 1×10^5 cells/well were seeded, confluence being reached after a 48 hour incubation, in a wet stove, 5% CO2, 37° C.
Subsequent to confluence (approximately 80% of the total area), the samples to be assessed were added, at the appropriate concentrations and previously established, according to table 1, always keeping a group as CONTROL (with no treatment), for comparative purposes in assessing effectiveness. The samples were previously diluted in proper culture medium.
as §1
Quantification of the production of beta-endorphin by the cells in culture was carried out by the immunoenzymatic method ELISA (Enzyme-Linked Immunosorbent Assay), using a kit appropriate for determining beta-endorphin in biological samples. The samples were assessed in quadruplicate.

Row | Structure (SMILES) | production of β-endorphin compared with TC150905MX at the same concentration (human keratinocytes) | power in the ability of increasing AMPc (fosfodiesterase inhibition) (bovine fosfodiesterase) | power on noradrenaline-induced lypolisis (adipocytes) | prevention of UVA light-induced wrinkles [1] | production of β-endorphin compared with TC150905MX at the same concentration (human fibroblasts)
1 | Cn1c(=O)c2c(ncn2C)n(C)c1=O [caffeine] | higher production of β-endorphin | identical | equivalent power | effective | higher production of β-endorphin
2 | Cn1cnc2c1c(=O)[nH]c(=O)n2C [theobromine] |  | identical |  |  | 
